Source: article PMC11134387, “Cancer-Stem-Cell Phenotype-Guided Discovery of a Microbiota-Inspired Synthetic Compound Targeting NPM1 for Leukemia” (JACS Au, 2024)
Where “and” joins values, the source holds several entries; their conditions need not be identical. Identical values can stand only once.

Tests used:
[1] = biological target: T1, NPM1 N-end (pentameric, WT) (Homo sapiens, UniProt P06748); test: Isothermal titration calorimetry, NPM1 N-end; assay type: binding; settings: ITC, 25 °C
T1 construct: N-end pentameric domain (residues 1- 130); 6xHis (N); made in house; host or cells: E. coli BL21(DE3)
Text: To confirm a direct interaction of UCM-13369 with NPM1 and to address which domain of the protein would be responsible for binding the compound, pure protein samples of the pentameric N-end domain of NPM1, along with the C-terminal DNA-binding domains of WT and mutant NPM1 C+, were used in calorimetry assays. […] This is indicative of a lower diversity in the chemical environment of amide protons consistent with the previously reported protein unfolding.[29] […] On the other hand, the pentameric construct of the NPM1 N-end, which lacks the AML-related region, yielded a much lower binding affinity (KD ca. 100 μM range, Figure 3D).
ITC experiments were performed in a Nano ITC Low Volume (TA Instruments) at 25 °C. […]
The purity of the protein samples was checked by SDS–PAGE analysis (Figure S3) and protein quantification was performed using the Bradford protein assay.5 NPM molar concentration was expressed as the pentameric form for NPM1 WT N-end and as a monomer for NPM1 C-end WT and mutant. […]
After extraction with acetonitrile and acidification, samples were desalted and concentrated with C18 tips. Mass spectra were recorded in a Hybrid Quadrupole-Orbitrap™ Mass Spectrometer (Thermo Scientific, Waltham, Massachusetts, USA)

[2] = system: primary HSCs from patients with NPM1 C+ AML; test: CD34+ liquid HSC short-term culture, NPM1 C+ AML patients; assay type: cell-based; settings: Homo sapiens, n = 4
Protocol: Considering the inhibitory capacity of UCM-13369 on AML cell lines (shown in Figure 3A), the therapeutic potential was assessed in primary CD34+ cells from AML patients. Two ex vivo models were used from AML patients and healthy donors: CD34+ liquid HSC (hematopoietic stem cell) culture as a short-term model and CFU-E (colony-forming unit–erythroid) as a midterm model.
The test compound was diluted in PBS. […]
quantitative real-time PCR (qPCR), or were sorted using a FACS BD INFL UX cell sorter (BD Biosciences, Franklin Lakes, NJ, USA). All cells were maintained at 37 °C in a humidified incubator in an atmosphere of 5% CO2, and passaged every 2–3 days. […]
Primary cells. […] After 72 h in maintenance cells were ready to start the assays. […]
Colonospheres, mamospheres and colony formation unit assays. […] After 10 days (mamospheres and colonospheres) and 14 days (CFU-E) we quantified t he number of colonies/spheres and number of cell s (CFU-E) by […]
RNA and DNA extraction and quantitative PCR (qPCR). […] Gene expression was studied from the extracted RNA, processed into cDNA to quantify the expression of NPM1 and c-MYC. […]
The relative amount of targets was determined by the comparative Ct method.
Western blot. […] Lysates wer e cl ear ed by centrifugation (14,000g, 4 °C, 30 min), protein concentration determined by Bradford

T1 sequence (P06748 1-130): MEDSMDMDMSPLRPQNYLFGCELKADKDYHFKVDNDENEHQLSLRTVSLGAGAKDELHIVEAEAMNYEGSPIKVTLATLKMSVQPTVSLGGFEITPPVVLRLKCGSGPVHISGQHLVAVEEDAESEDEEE

## COc1ccc(C2Cc3[nH]c4ccccc4c3C(CCNCC3CC3)C2N)cc1 (centres unmarked) [4b, 4-{2-[(Cyclopropylmethyl)amino]ethyl}-2-(4-methoxyphenyl)-2,3,4,9-tetrahydro-1H-carbazol-3-amine]
[1]
  Kd: 100 µM and ~100 µM
[2]
  IC50: 1.73 µM
